Test results from patent publication US5935966A, “Pyrimidine carboxylates and related compounds and methods for treating inflammatory conditions” (Signal Pharmaceuticals, Inc., priority 1996, dated 1999).

System: delayed-type hypersensitivity response to oxazolone
Experiment: not given
Settings: Morris et al. 1990; cited from earlier work

Compound | activity in delayed-type hypersensitivity (oxazolone) model
O=P1(N(CCCl)CCCl)NCCCO1 (stereo not shown) [cyclophosphamide] | active

System: popliteal lymph node (graft vs. host)
Experiment: not given
Settings: Morris et al. 1990; cited from earlier work

Compound | activity in popliteal lymph node (graft vs. host) model
O=P1(N(CCCl)CCCl)NCCCO1 (stereo not shown) [cyclophosphamide] | active

System: NFκB and AP-1
Experiment: NFκB and AP-1 luciferase reporter assays in stable Jurkat T-cells (PMA/PHA stimulated)
Type: cell-based, human
Settings: Homo sapiens, average of NFκB and AP-1 assays, read-out: ICm (average of the measurements obtained from the NFκB and AP-1 assays)
Excerpt: Stable human Jurkat T-cells containing an NFκB binding site (from the MHC promoter) fused to a minimal SV-40 promoter driving luciferase expression were used in this experiment. Cells were split to 3×10^5 cells/mL every 2-3 days (cell concentration should not exceed 1×10^6 cells/mL to keep the cells proliferating in log phase). These cells were counted, resuspended in fresh medium containing 10% Serum-Plus at a density of 1×10^6 cells/mL and plated in 96 well round bottom plates (200 μ.LAMBDA. per well) 18 hours prior to starting the experiment.
Compounds of this invention, dissolved in dimethyl sulfoxide (3.3, 0.33 and 0.03 μg/mL), were then added to the 96 well plates containing the cells and the plates were incubated for 0.5 h at 37° C. Then 50 ng/mL of phorbol 12-myristate-13-acetate (PMA) and 1 μg/mL of phytohemagglutinin (PHA) were added to each well and the cells were incubated for an additional 5 h at 37° C. The plates were centrifuged at 2200 RPM for 3 minutes at room temperature and then the medium was removed. To each well was added 60 μL of cell lysis buffer and the plates were left at room temperature for 0.25 h. Then 40 μL of each cell extract was transferred to a black 96 well plate and 50 μL of luciferase substrate buffer was added. Luminescence was immediately measured using a Packard TopCount.
For AP-1, the assay was run as described above for NFκB except stable Jurkat T-cells were used that contained a collagenase promoter driving luciferase expression. In addition, the concentration of PMA used was 5 ng/mL.
The IC50 values reported in Table 3 are the average of the measurements obtained from the NFκB and AP-1 assays described above.

Compound | IC50 [nM]
CCOC(=O)c1cnc(Cc2ccc(Cl)c(Cl)c2)nc1NN1C(=O)C=C(C)C1=O [Example 124, ETHYL 4-[N-(1'-AMINOCITRACONAMIDO)]-2-(3',4'-DICHLOROBENZYL)-PYRIMIDINE-5-CARBOXYLATE] | 4000
CCOC(=O)c1cnc(NN2C(=O)C=C(C)C2=O)nc1C1CC1 [Example 108, ETHYL 2-[N-(1'-AMINOCITRACONAMIDO)]-4-CYCLOPROPYLPYRIMIDINE-5-CARBOXYLATE] | 1500
CC1=CC(=O)N(Nc2ncc(C(=O)c3ccccc3)c(C(F)(F)F)n2)C1=O [Example 87, 5-BENZOYL 2-[N-(1'-AMINOCITRACONAMIDO)]-4-TRIFLUOROMETHYLPYRIMIDINE] | 550
COC(=O)c1cnc(NN2C(=O)C=C(C)C2=O)nc1-c1cccs1 [Example 83, METHYL 2-[N-(1'-AMINOCITRACONAMIDO)]-4-(2'-THIENYL)PYRIMIDINE-5-CARBOXYLATE] | 80
CCOC(=O)c1cnc(NN2C(=O)C=C(C)C2=O)nc1-c1ccsc1 [Example 88, ETHYL 2-[N-(1'-AMINOCITRACONAMIDO)]-4-(3'-THIENYL)PYRIMIDINE-5-CARBOXYLATE] | 500
CCOC(=O)c1cnc(N(C(=O)c2ccccc2)N2C(=O)C=C(C)C2=O)nc1C(F)(F)F [Example 100, ETHYL 2-[N-(1'-AMINOCITRACONAMIDO)-N-BENZOYL]-4-TRIFLUOROMETHYLPYRIMIDINE-5-CARBOXYLATE] | 800
CCOC(=O)c1cnc(-c2ccccc2)nc1NN1C(=O)C=C(C)C1=O [Example 115] | 30
CCOC(=O)c1cnc(NN2C(=O)C=C(c3ccccc3)C2=O)nc1C(F)(F)F [Example 40, ETHYL 2-[N-(1'-AMINO-3'-PHENYLMALEIMIDO)]-4-TRIFLUOROMETHYLPYRIMIDINE-5-CARBOXYLATE] | 1000
CC1=CC(=O)N(Nc2nc(-c3cccs3)ncc2C2=NCCO2)C1=O [Example 140, 4-[N-(1'-AMINOCIACONAMIDO)]-5-(4",5"-DIHYDRO-2"-OXAZOLYL)-2-(2'"-THIENYL)PYRIMIDINE] | 200
CC1=CC(=O)N(Nc2nc(-c3cccs3)ncc2C#N)C1=O [Example 143, 4-[N-(1'-AMINOCITRACONAMIDO)]-5-CYANO-2-(2'-THIENYL)PYRIMIDINE] | 5150
CCOC(=O)c1cnc(NN2C(=O)C=C(C)C2=O)nc1-c1ccco1 [Example 91, ETHYL 2-[N-(1'-AMINOCITRACONAMIDO)]-4-(2'-FURANYL)PYRIMIDINE-5-CARBOXYLATE] | 1100
CCOC(=O)c1cnc(N(Cc2ccccc2)N2C(=O)C=C(C)C2=O)nc1C(F)(F)F [Example 84, ETHYL 2-[N-(1'-AMINOCITRACONAMIDO-N-BENZYL)]-4-TRIFLUOROMETHYLPYRIMIDINE-5-CARBOXYLATE] | 450
CCOC(=O)c1cnc(N(C(=O)Cc2ccccc2)N2C(=O)C=C(C)C2=O)nc1C(F)(F)F [Example 97, ETHYL 2-[N-(1'-AMINOCITRACONAMIDO)-N-(1-OXO-2"-PHENYLETHYL]-4-TRIFLUOROMETHYLPYRIMIDINE-5-CARBOXYLATE] | 900
CCOC(=O)c1cnc(Cc2ccccc2)nc1NN1C(=O)C=C(C)C1=O [Example 119, ETHYL 4-[N-(1'-AMINOCITRACONAMIDO)]-2-BENZYLPYRIMIDINE-5-CARBOXYLATE] | 7000
CCOC(=O)c1cnc(NN2C(=O)C=C(C)C2=O)nc1-c1cc2ccccc2s1 [Example 93, ETHYL 2-[N-(1'-AMINOCITRACONAMIDO)]-4-(2'-THIANAPHTHYL)PYRIMIDINE-5-CARBOXYLATE] | 800

Results, then the compound that gave them:

IC50 [nM] | Compound
200 | CCOC(=O)c1cnc(N(C)N2C(=O)C=C(C)C2=O)nc1-c1ccsc1 [Example 89, ETHYL 2-[N-(1'-AMINOCITRACONAMIDO-N-METHYL)]-4-(3-THIENYL)PYRIMIDINE-5-CARBOXYLATE]
400 | CCOC(=O)c1cnc(N(C(=O)OCC)N2C(=O)C=C(C)C2=O)nc1C(F)(F)F [Example 99, ETHYL 2-[N-(1'-AMINOCITRACONAMIDO)-N-(ETHOXYCARBONYL)]-4-TRIFLUOROMETHYLPYRIMIDINE-5-CARBOXYLATE]
300 | CCOC(=O)c1cnc(N(C)N2C(=O)C=C(C)C2=O)nc1-c1ccc(C)s1 [Example 92, ETHYL 2-[N-(1'-AMINOCITRACONAMIDO-N-METHYL)]-4-[2'-(5'-METHYLTHIENYL)]PYRIMIDINE-5-CARBOXYLATE]
1100 | CCN(c1ncc(C(=O)OC)c(C(F)(F)F)n1)N1C(=O)C=C(C)C1=O [Example 94, METHYL 2-[N-(1'-AMINOCITRACONAMIDO-N-ETHYL)]-4-TRIFLUOROMETHYLPYRIMIDINE-5-CARBOXYLATE]
200 | CCOC(=O)c1cnc(N(C)N2C(=O)C=C(C)C2=O)nc1C1CC1 [Example 109, ETHYL 2-[N-(1'-AMINOCITRACONAMIDO-N-METHYL)]-4-CYCLOPROPYLPYRIMIDINE-5-CARBOXYLATE]
4900 | CCc1nc(N(C)N2C(=O)C=C(C)C2=O)ncc1CO [Example 111, 2-[N-(1'-AMINOCITRACONAMIDO)-N-METHYL]-4-ETHYL-5-(HYDROXYMETHYL)PYRIMIDINE]
750 | CC1=CC(=O)N(N(C)c2ncc(-c3nc(C)co3)c(-c3cccs3)n2)C1=O [Example 127, 2-[N-(1'-AMINOCITRACONAMIDO)-N-METHYL]-5-[2"-(4"-METHYL)OXAZOLYL]-4-(2'"-THIENYL)PYRIMIDINE]
500 | CCCC(=O)c1cnc(N(C)N2C(=O)C=C(C)C2=O)nc1CC [Example 107, 5-BUTANOYL 2-[N-(1'-AMINOCITRACONAMIDO-N-METHYL)]-4-ETHYLPYRIMIDINE]
1420 | CCc1nc(N(C)N2C(=O)C=C(C)C2=O)ncc1-c1noc(C)n1 [Example 129, 2-[N-(1'-AMINOCITRACONAMIDO)-N-METHYL]-4-ETHYL-5-[5"-METHYL-1",2",4"-OXADIAZOLYL]PYRIMIDINE]
20 | CCOC(=O)c1cnc(N(C)N2C(=O)C=C(C)C2=O)nc1-c1cccs1 [Example 85, ETHYL 2-[N-(1'-AMINOCITRACONAMIDO-N-METHYL)]-4-(2'-THIENYL)PYRIMIDINE-5-CARBOXYLATE]
400 | CCOC(=O)c1cnc(N(C(C)=O)N2C(=O)C=C(C)C2=O)nc1C(F)(F)F [Example 75, ETHYL 2-[N-ACETYL-N-(1'-AMINOCITRACONAMIDO)]-4-TRIFLUOROMETHYLPYRIMIDINE-5-CARBOXYLATE]
190 | CC1=CC(=O)N(Nc2nc(-c3cccs3)ncc2-c2cc(C)no2)C1=O [Example 132, 4-[N-(1'-AMINOCITRACONAMIDO)]-5-(3"-METHYLISOXAZOL-5'-YL)-2-(2'"-THIENYL)PYRIMIDINE]
200 | CCOC(=O)c1cnc(N(C)N2C(=O)C=C(C)C2=O)nc1-c1cc2ccccc2s1 [Example 104, ETHYL 2-[N-(1'-AMINOCITRACONAMIDO)]-4-(2'-THIANAPHTHYL)PYRIMIDINE-5-CARBOXYLATE]

Same assay, conditions: average of NFκB and AP-1 assays, read-out: ICm (average of the measurements obtained from the NFκB and AP-1 assays)

IC50 [nM] | Compound
3900 | CCOC(=O)c1cnc(NN2C(=O)C(CC)=C(CC)C2=O)nc1C(F)(F)F [Example 41, ETHYL 2-[N-(1'-AMINO-3',4'-DIETHYLMALEIMIDO)]-4-TRIFLUOROMETHYLPYRIMIDINE-5-CARBOXYLATE]
